# Tested on: miR-122 targets
# Test: RNA-Seq of miR-122 targetome (negative control)
# Type: cell-based, human
# Procedure: As described in Example 3, total RNA was isolated from DM-patient and healthy cells, and cDNA libraries were prepared for three conditions (healthy volunteer (HV); DM; DM+Compound II) for DM1 and DM2 backgrounds. The expression levels of predicted targetomes of miRNAs let-7, miR-1, miR-9, miR-29, miR-30, miR-107 and miR-181 were then compared, using miR-122 as well as more than 2,000 transcripts that are not predicted targets of any miRNA as negative controls. Three pair-wise comparisons were performed to measure: i) how a targetome varies between healthy and diseased cells (HV versus DM), ii) how a targetome responds to treatment with the inventive compounds (DM versus DM+Compound II) and, iii) how a Compound II-treated DM-targetome compares to that of a healthy signature. For each pair-wise comparison, the third dataset was used as a reference and the fold changes were calculated for each target transcript (e.g. DM1 vs. DM1+Compound II, with fold changes calculated relative to HV).
# Primary myoblasts or myotubes derived from DM1 or DM2 patient samples and non-DM healthy control individuals were cultured for 90% confluence and then treated with 120 μM Compound II for 72 h. […] Quality and size distribution of the generated libraries was validated using an Agilent 2100 bioanalyzer with high-sensitivity RNA chip (Agilent) and RNA yield was measured using the Qubit […] HS Assay Kit followed by pooling of the libraries in batches of 12 and sequencing of […] pooled library on an Nextseq 500/High Output Flow Cell Cartridge using a paired end, 2×76 reads, single index protocol.
# RNA-Seq reads were mapped to the human genome (build GRCh38) using STAR (Dobin et al., (2013). STAR: ultrafast universal RNA-seq aligner. Bioinformatics 29, 15-21) with gene annotations from gencode (www.gencodegenes.org; version 40). Reads mapping uniquely to exons were counted for each gene using htseq-count (Anders et al., (2015). HTSeq—a Python framework to work with high-throughput sequencing data. Bioinformatics 31, 166-169) with the parameter -s reverse and -m intersection_strict. […]
compound,measurement,setting,value
CC(=O)N(C)c1cccc(-c2ccc3nnc(C)n3n2)c1 [Compound II],change of miR-122 targets,"DM1 and DM2 myotubes, 120 μM, 72 h",not significantly changed
same,change of miR-122 targets,"DM1 myoblasts, 120 μM, 72 h",not significantly changed
same,change of miR-122 targets,"DM2 myoblasts, compared to targetomes of other miRNAs",weaker change
